Laboratory results from patent publication US20180148418A1, “AMIDO-SUBSTITUTED CYCLOHEXANE DERIVATIVES” (Bayer Pharma Aktiengesellschaft, priority 2015, published 2018).

Legend:
TNKS1 = target: T1, TNKS1 (Homo sapiens, UniProt O95271); assay: TNKS1 Assay B (auto-parsylation, [3H]-NAD+ SPA); assay type: biochemical; settings: 6 nM TNKS1, auto-parsylation, over night at room temperature
T1 construct: purchased BPS Bioscience, San Diego, USA 80579 (TNKS1 Histone Ribosylation Assay Kit)
T1 sequence (O95271 1-1327): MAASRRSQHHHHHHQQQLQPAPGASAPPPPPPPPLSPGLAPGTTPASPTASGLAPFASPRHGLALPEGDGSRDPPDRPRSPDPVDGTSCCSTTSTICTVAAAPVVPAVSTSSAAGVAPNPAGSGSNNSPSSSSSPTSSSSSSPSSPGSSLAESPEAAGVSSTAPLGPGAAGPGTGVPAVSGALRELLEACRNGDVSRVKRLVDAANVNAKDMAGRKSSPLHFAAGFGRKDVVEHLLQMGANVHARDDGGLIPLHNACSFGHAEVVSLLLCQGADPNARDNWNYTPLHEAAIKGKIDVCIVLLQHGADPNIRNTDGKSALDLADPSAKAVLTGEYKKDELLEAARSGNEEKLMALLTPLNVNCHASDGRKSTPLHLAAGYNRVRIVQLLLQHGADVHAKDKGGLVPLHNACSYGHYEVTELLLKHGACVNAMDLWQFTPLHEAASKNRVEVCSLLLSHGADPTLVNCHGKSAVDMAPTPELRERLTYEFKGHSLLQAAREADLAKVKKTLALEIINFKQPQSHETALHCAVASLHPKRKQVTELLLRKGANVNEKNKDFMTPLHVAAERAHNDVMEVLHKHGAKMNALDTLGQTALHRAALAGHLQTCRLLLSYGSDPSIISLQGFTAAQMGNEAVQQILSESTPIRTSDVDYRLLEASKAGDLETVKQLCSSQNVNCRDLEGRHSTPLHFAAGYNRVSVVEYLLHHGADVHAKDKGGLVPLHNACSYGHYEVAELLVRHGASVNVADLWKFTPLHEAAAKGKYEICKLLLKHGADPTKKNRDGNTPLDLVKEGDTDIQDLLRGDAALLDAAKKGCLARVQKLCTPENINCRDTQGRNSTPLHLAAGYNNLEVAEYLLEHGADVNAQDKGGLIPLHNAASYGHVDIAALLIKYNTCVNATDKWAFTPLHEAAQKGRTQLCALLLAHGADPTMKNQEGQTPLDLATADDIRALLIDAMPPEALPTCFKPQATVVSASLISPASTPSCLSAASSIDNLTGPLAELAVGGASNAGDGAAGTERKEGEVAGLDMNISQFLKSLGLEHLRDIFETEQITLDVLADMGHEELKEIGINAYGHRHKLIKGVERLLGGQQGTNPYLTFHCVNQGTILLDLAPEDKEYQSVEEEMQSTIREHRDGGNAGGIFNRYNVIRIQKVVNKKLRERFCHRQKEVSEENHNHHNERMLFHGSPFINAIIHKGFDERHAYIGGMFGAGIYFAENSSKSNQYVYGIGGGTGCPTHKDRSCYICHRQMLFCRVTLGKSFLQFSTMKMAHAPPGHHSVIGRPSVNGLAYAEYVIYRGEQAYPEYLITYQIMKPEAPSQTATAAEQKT

[1] = system: HEK293 cells cotransfected with the FOP control vector; assay: HEK293 FOP assay (control reporter with non-functional TCF elements); assay type: cell-based; settings: Homo sapiens, 16 hours
Method in brief: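 Stable HEK293 line carrying FOP control reporter (randomized non-functional TCF sites, with pcDNA3), Geneticin-selected, plated 24 h before assay. Stimulated with recombinant human Wnt-3a (2500-5 ng/ml) and compounds 50 μM–15 nM (3.16-fold steps) in CAFTY buffer pH 7.4 with 2 mM Ca2+, 0.01% BSA, run parallel to TOP line.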

SMILES	IC50 (TNKS1)	IC50 [1]
O=C(N[C@H]1CC[C@@]2(CCN(c3cccc(Cl)c3)C2=O)CC1)c1cnc2cccnn12 [Example 269, N-[(trans)-2-(3-chlorophenyl)-1-oxo-2-azaspiro[4.5]dec-8-yl]imidazo[1,2-b]pyridazine-3-carboxamide]	800 nM	≥ 50000 nM
O=C(N[C@H]1CC[C@H](C(=O)N(CC2CC2)c2ccc(F)cc2Cl)CC1)c1cnn2cccnc12 [Example 177, N-{trans-4-[(2-chloro-4-fluorophenyl)(cyclopropylmethyl)carbamoyl]cyclohexyl}pyrazolo[1,5-a]pyrimidine-3-carboxamide]	13 nM	40000 nM
COCCNC(=O)c1nc[nH]c1C(=O)N[C@H]1CC[C@H](C(=O)Nc2ccc(F)cc2Cl)CC1 [Example 19, N^5-{trans-4-[(2-chloro-4-fluorophenyl)carbamoyl]cyclohexyl}-N^4-(2-methoxyethyl)-1H-imidazole-4,5-dicarboxamide]	120 nM	≥ 50000 nM
Cc1nn2cccnc2c1C(=O)N[C@H]1CC[C@@]2(CCN(c3ccc(F)cc3Cl)C2=O)CC1 [Example 216, N-[(trans)-2-(2-chloro-4-fluorophenyl)-1-oxo-2-azaspiro[4.5]dec-8-yl]-2-methylpyrazolo[1,5-a]pyrimidine-3-carboxamide]	570 nM	≥ 50000 nM
COCCNC(=O)c1nc[nH]c1C(=O)N[C@H]1CC[C@@]2(CCN(c3ccccc3Cl)C2=O)CC1 [Example 259, N^5-[(trans)-2-(2-chlorophenyl)-1-oxo-2-azaspiro[4.5]dec-8-yl]-N^4-(2-methoxyethyl)-1H-imidazole-4,5-dicarboxamide]	12 nM	≥ 50000 nM
Cc1cc(C)n2ncc(C(=O)N[C@H]3CC[C@H](C(=O)Nc4cnccc4Cl)CC3)c2n1 [Example 169, N-{trans-4-[(4-chloropyridin-3-yl)carbamoyl]cyclohexyl}-5,7-dimethylpyrazolo[1,5-a]pyrimidine-3-carboxamide]	35 nM	≥ 50000 nM
CNC(=O)c1[nH]cnc1C(=O)N[C@H]1CC[C@@](C)(C(=O)Nc2ccc(F)cc2Cl)CC1 [Example 181, N^4-{cis-4-[(2-chloro-4-fluorophenyl)carbamoyl]-4-methylcyclohexyl}-N^5-methyl-1H-imidazole-4,5-dicarboxamide]	> 10000 nM	24000 nM
CC(C)NC(=O)c1nc[nH]c1C(=O)N[C@H]1CC[C@H](C(=O)Nc2ccc(F)cc2Cl)CC1 [Example 20, N^5-{trans-4-[(2-chloro-4-fluorophenyl)carbamoyl]cyclohexyl}-N^4-isopropyl-1H-imidazole-4,5-dicarboxamide]	90 nM	≥ 50000 nM
CNC(=O)c1nc[nH]c1C(=O)N[C@H]1CC[C@H](C(=O)Nc2cc(C(C)(C)O)ccc2Cl)CC1 [Example 170, N^5-(trans-4-{[2-chloro-5-(2-hydroxypropan-2-yl)phenyl]carbamoyl}cyclohexyl)-N^4-methyl-1H-imidazole-4,5-dicarboxamide]	2400 nM	≥ 50000 nM
O=C(NCC(F)(F)F)c1nc[nH]c1C(=O)N[C@H]1CC[C@@]2(CCN(c3cccc(Cl)c3)C2=O)CC1 [Example 281, N^5-[(trans)-2-(3-chlorophenyl)-1-oxo-2-azaspiro[4.5]dec-8-yl]-N^4-(2,2,2-trifluoroethyl)-1H-imidazole-4,5-dicarboxamide]	330 nM	≥ 50000 nM
O=C(NC1CC1)c1nc[nH]c1C(=O)N[C@H]1CC[C@@]2(CCN(c3cccc(Cl)c3)C2=O)CC1 [Example 279, N^5-[(trans)-2-(3-chlorophenyl)-1-oxo-2-azaspiro[4.5]dec-8-yl]-N^4-cyclopropyl-1H-imidazole-4,5-dicarboxamide]	290 nM	≥ 50000 nM
Cc1cc(C)n2ncc(C(=O)N[C@H]3CC[C@@]4(CCN(c5ccc(F)cc5)C4=O)CC3)c2n1 [Example 211, N-[(trans)-2-(4-fluorophenyl)-1-oxo-2-azaspiro[4.5]dec-8-yl]-5,7-di methyl pyrazolo[1,5-a]pyrimidine-3-carboxamide]	430 nM	25000 nM
CNC(=O)c1nc[nH]c1C(=O)N[C@H]1CC[C@H](C(=O)Nc2ccncc2Cl)CC1 [Example 11, N^5-{trans-4-[(3-chloropyridin-4-yl)carbamoyl]cyclohexyl}-N^4-methyl-1H-imidazole-4,5-dicarboxamide]	260 nM	≥ 50000 nM
CCNC(=O)c1[nH]cnc1C(=O)N[C@H]1CC[C@@]2(CCN(c3ccc(F)cc3)C2=O)CC1 [Example 213, N^5-ethyl-N^4-[(trans)-2-(4-fluorophenyl)-1-oxo-2-azaspiro[4.5]dec-8-yl]-1H-imidazole-4,5-dicarboxamide]	340 nM	30000 nM
CN(C)C(=O)c1nc[nH]c1C(=O)N[C@H]1CC[C@H](C(=O)Nc2ccc(F)cc2Cl)CC1 [Example 16, N^5-{trans-4-[(2-chloro-4-fluorophenyl)carbamoyl]cyclohexyl}-N^4,N^4-dimethyl-1H-imidazole-4,5-dicarboxamide]	1100 nM	≥ 50000 nM

The next compounds have a lower IC50 (TNKS1) than those just listed; values first:

IC50 (TNKS1)	SMILES	IC50 [1]
9.9 nM	Cc1cc(N2CC[C@]3(CC[C@@H](NC(=O)c4cnn5cccnc45)CC3)C2=O)c(Cl)cc1F [Example 267, N-[(trans)-2-(2-chloro-4-fluoro-5-methylphenyl)-1-oxo-2-azaspiro[4.5]dec-8-yl]pyrazolo[1,5-a]pyrimidine-3-carboxamide]	≥ 50000 nM
4.5 nM	CCNC(=O)c1nc[nH]c1C(=O)N[C@H]1CC[C@@]2(CCN(c3cc(F)c(F)cc3Cl)C2=O)CC1 [Example 197, N^5-[(trans)-2-(2-chloro-4,5-difluorophenyl)-1-oxo-2-azaspiro[4.5]dec-8-yl]-N^4-ethyl-1H-imidazole-4,5-dicarboxamide]	19000 nM
10 nM	O=C(NCCN1CCOCC1)c1nc[nH]c1C(=O)N[C@H]1CC[C@H](C(=O)Nc2ccc(F)cc2Cl)CC1 [Example 13, N^5-{trans-4-[(2-chloro-4-fluorophenyl)carbamoyl]cyclohexyl}-N^4-[2-(morpholin-4-yl)ethyl]-1H-imidazole-4,5-dicarboxamide]	≥ 50000 nM
7.5 nM	O=C(NC1CC1)c1nc[nH]c1C(=O)N[C@H]1CC[C@@]2(CCN(c3cc(F)c(F)cc3Cl)C2=O)CC1 [Example 199, N^5-[(trans)-2-(2-chloro-4,5-difluorophenyl)-1-oxo-2-azaspiro[4.5]dec-8-yl]-N^4-cyclopropyl-1H-imidazole-4,5-dicarboxamide]	21000 nM
3.7 nM	CC1CCN(CCNC(=O)c2nc[nH]c2C(=O)N[C@H]2CC[C@H](C(=O)Nc3ccc(F)cc3Cl)CC2)CC1 [Example 12, N^5-{trans-4-[(2-chloro-4-fluorophenyl)carbamoyl]cyclohexyl}-N^4-[2-(4-methylpiperidin-1-yl)ethyl]-1H-imidazole-4,5-dicarboxamide]	≥ 50000 nM
5.5 nM	O=C(NCC(F)(F)F)c1nc[nH]c1C(=O)N[C@H]1CC[C@@]2(CCN(c3cc(F)c(F)cc3Cl)C2=O)CC1 [Example 201, N^5-[(trans)-2-(2-chloro-4,5-difluorophenyl)-1-oxo-2-azaspiro[4.5]dec-8-yl]-N^4-(2,2,2-trifluoroethyl)-1H-imidazole-4,5-dicarboxamide]	22000 nM
7.4 nM	CC1CCN(CCNC(=O)c2nc[nH]c2C(=O)N[C@H]2CC[C@@]3(CCN(c4ccccc4Cl)C3=O)CC2)CC1 [Example 260, N^5-[(trans)-2-(2-chlorophenyl)-1-oxo-2-azaspiro[4.5]dec-8-yl]-N^4-[2-(4-methylpiperidin-1-yl)ethyl]-1H-imidazole-4,5-dicarboxamide]	≥ 50000 nM
